Data from patent US10561646B2, “EGFR inhibitor and pharmaceutically acceptable salt and polymorph thereof, and use thereof” (SHANGHAI HAIYAN PHARMACEUTICAL TECHNOLOGY CO., LTD., priority 2015, dated 2020).
Entries after “also recorded” stand apart in the source; their conditions may differ. Read-outs that look alike come from different tables or passages of the source.

Experiments:
[1] = Storage of crystal form C-1 at 80° C. for 24 hours (XRPD, HPLC); type: physicochemical
[2] = Suspension competition test between crystal forms; type: physicochemical; conditions: for stability relationship crystal form II / IV: acetone/H2O (aw 0.6), about 5 minutes
Experimental: Firstly, the suspension of maleate crystal form C-1 in acetone was prepared at two temperature respectively, and filtered after balancing for about one hour.
In order to further confirm the stability relationship between anhydrous crystal form I and hydrate crystal form II under different water activity conditions at room temperature, the mixture of crystal form I and crystal form II was suspended and stirred in acetone/H2O solvent system with different water activities (aw—0.2/0.4/0.6/0.8).
In order to study the stability relationship between different hydrate crystal form II and IV at room temperature to 50° C., a suspension competition test was set up in aqueous system at room temperature and 50° C. respectively. Firstly, the free base suspension in acetone/H2O (aw—0.6) was prepared at room temperature and 50° C. respectively. After balancing at the corresponding temperature for about 1 hour, the suspension was filtered to obtain the near saturated solution at the corresponding temperature. An equal quantity of crystal form II and IV samples (about 6 mg each) was added to 0.8 ml of saturated solution to form a suspension which was magnetically stirred (−800 rpm) at room temperature and 50° C. for about 5 minutes, and sampled for XRPD test.

[3] = In vivo test of rats, pharmacokinetics after oral gavage; parameters: species or system SD rats; conditions: rat, oral gavage 5 mg/kg; for Area under the curve AUC / Half-life T1/2: plasma
[4] = Hygroscopicity / DVS test; type: physicochemical; conditions: for moisture absorbed: humidity increased to 80% RH at 25° C.
Experimental: Dynamic Vapor Sorption (DVS) curve: collected on DVS Intrinsic SMS (Surface Measurement Systems). The relative humidity at 25° C. is corrected with the deliquescent points of LiCl, Mg (NO3)2 and KCl.
The rate of weight loss increases when the humidity is reduced to 20% RH at 25° C.
The DVS test was performed on crystal form II sample at a constant temperature of 25° C.
In order to assess the stability of anhydrous crystal form I and hydrate crystal form II under different humidity conditions, DVS assay was performed on samples of anhydrous crystal form I and hydrate crystal form II at constant 25° C.
When the humidity reaches 20% RH, a turning point appears in the isothermal map of DVS, which is caused by the transition from anhydrous crystal form I to hydrate form II according to the XRPD comparison of the samples before and after the DVS assay shown in FIG. 32. The actual moisture absorbed is less than the moisture content of crystal form II sample due to the slow solid phase transition rate.

[5] = Solid phase stability experiment (XRPD, HPLC, TGA after one week); type: physicochemical; conditions: for Purity (%): HPLC; for Weight loss (%): TGA; for crystal transition: XRPD
Experimental: An appropriate amount of samples were weighed and stored at 25° C./60% RH and 40° C./75% RH (unsealed), respectively. Another set of samples were sealed and kept as a control at 5° C. at the same time. All samples were characterized by XRPD, HPLC and TGA one week later, and the crystal form, purity and weight loss were tested.

NIH3T3 cells = assay: Cytotoxicity against NIH3T3 cells, MTT assay; type: cell-based; conditions: Mus musculus, 72 h incubation
H1975 cells [6] = assay: Cytostatic activity by MTT method, H1975; type: cell-based
EGFR WT kinase = target: T1, EGFR WT kinase (Homo sapiens, UniProt P00533); assay: Wild type EGFR kinase inhibition test (z-lyte); type: biochemical
T1 construct: purchased Invitrogen PV3872
T1 sequence (P00533 25-1210): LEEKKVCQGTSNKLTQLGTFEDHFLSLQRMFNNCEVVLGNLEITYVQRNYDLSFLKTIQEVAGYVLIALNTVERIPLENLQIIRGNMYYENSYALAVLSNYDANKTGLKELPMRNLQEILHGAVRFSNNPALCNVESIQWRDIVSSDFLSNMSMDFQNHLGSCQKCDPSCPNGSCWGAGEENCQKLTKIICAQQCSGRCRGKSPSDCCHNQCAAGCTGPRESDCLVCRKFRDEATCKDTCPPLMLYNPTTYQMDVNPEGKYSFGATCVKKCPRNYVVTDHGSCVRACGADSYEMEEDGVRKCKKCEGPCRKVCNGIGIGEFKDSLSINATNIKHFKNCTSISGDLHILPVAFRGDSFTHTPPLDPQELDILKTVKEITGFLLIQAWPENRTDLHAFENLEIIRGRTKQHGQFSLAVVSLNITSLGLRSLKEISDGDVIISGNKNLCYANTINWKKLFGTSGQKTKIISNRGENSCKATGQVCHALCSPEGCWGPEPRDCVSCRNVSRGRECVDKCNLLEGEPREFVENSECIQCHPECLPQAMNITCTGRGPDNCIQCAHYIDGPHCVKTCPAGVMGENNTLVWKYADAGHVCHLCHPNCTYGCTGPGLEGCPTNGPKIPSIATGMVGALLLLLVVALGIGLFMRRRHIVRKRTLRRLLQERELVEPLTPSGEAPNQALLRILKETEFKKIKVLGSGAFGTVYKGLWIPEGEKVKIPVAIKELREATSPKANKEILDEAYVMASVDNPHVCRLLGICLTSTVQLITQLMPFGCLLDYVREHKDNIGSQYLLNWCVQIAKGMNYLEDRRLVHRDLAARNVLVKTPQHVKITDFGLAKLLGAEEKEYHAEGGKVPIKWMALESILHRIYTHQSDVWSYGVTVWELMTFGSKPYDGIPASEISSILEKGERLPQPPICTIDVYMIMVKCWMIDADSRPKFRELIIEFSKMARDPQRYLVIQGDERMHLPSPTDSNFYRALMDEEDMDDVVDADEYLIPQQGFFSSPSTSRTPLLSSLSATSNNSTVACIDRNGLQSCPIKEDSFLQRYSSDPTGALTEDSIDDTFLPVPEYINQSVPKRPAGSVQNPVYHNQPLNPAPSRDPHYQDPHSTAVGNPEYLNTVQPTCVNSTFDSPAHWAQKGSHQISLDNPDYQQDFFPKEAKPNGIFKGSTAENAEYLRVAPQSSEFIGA

[7] = Dynamic solubility experiment in water, SGF, FaSSIF, FeSSIF; type: physicochemical; conditions: thermodynamic from solid, room temperature
A431 cells [8] = assay: Cytostatic activity by MTT method, A431; type: cell-based
[9] = room temperature, crude solubility
H1975 cells [10] = assay: Activities of EGFR T790M inhibitor on cells by ELISA, H1975; type: cell-based; conditions: Homo sapiens, NCI-H1975
A431 cells [11] = assay: Activities on cells by ELISA, A431 (EGF stimulated); type: cell-based; conditions: Homo sapiens, A-431

Compound | Maximum plasma concentration Cmax [3] [ng/mL] | Area under the curve AUC [3] [ng·h/mL] | Half-life T1/2 [3] [h] | Purity (%) ([5]; 5° C. (control), sealed) | Weight loss (%) ([5]; 5° C. (control), sealed) | Weight loss (%) ([5]; 25° C./60% RH, unsealed) | crystal transition ([5]; 25° C./60% RH, unsealed) | Weight loss (%) ([5]; 40° C./75% RH, unsealed) | crystal transition ([5]; 40° C./75% RH, unsealed) | other results
C=CC(=O)Nc1cc(Nc2ncc(F)c(-c3cnn(C)c3)n2)c(OC)cc1N1CCC(N(C)C)CC1.O=C(O)/C=C\C(=O)O [crystal form C-1] | 86.3 | 1233 | 7.92 | 99.39 | 0.1 | 1.2 | no | 1.3 | no | crystal form and HPLC purity before and after the test [1]: did not change; stability relationship crystal form C-1 / C-2 ([2]; acetone, room temperature and 50° C., stirring 5 minutes): higher thermodynamic stability than crystal form C-2; crystal form before and after the DVS test (XRPD) ([4]; 25° C.): did not change; hygroscopicity ([4]; DVS, 25° C.): slightly hygroscopic; moisture absorbed ([4]; DVS): 0.3%
C=CC(=O)Nc1cc(Nc2ncc(F)c(-c3cnn(C)c3)n2)c(OC)cc1N1CCC(N(C)C)CC1.O=C(O)C[C@H](O)C(=O)O [crystal form D] | 84.4 | 1202 | 6.63 | 99.37 | 1.6 | 1.3 | no | 1.2 | no | –
C=CC(=O)Nc1cc(Nc2ncc(F)c(-c3cnn(C)c3)n2)c(OC)cc1N1CCC(N(C)C)CC1 [crystal form IV] | – | – | – | – | – | – | – | – | – | stability relationship crystal form II / IV ([2]; room temperature and 50° C.): quickly converted to hydrate crystal form II
CN(C)C/C=C/C(=O)Nc1cc2c(Nc3ccc(F)c(Cl)c3)ncnc2cc1O[C@H]1CCOC1 [BIBW2992] | – | – | – | – | – | – | – | – | – | IC50 (NIH3T3 cells): 2750 nM
C=CC(=O)Nc1cc(Nc2ncc(F)c(-c3cnn(C)c3)n2)c(OC)cc1N1CCC(N(C)C)CC1 [the free base of compound of formula X, N-(2-(4-(dimethylamino)piperidin-1-yl)-5-(5-fluoro-4-(1-methyl-1H-pyrazol-4-yl)pyrimidin-2-ylamino)-4-methoxyphenyl)acrylamide] | – | – | – | 99.23 | 5.1 | 5.3 | no | 6.2 | no | inhibitory activities against EGFR mutant cells (H1975 cells), in words (H1975 cells [6]): strong inhibitory activities; inhibitory activities against EGFR wild-type enzyme, in words (EGFR WT kinase): weak inhibitory activities; solubility at 1 h ([7]; fasting state simulated intestinal fluid (FaSSIF), FaSSIF, after 1 hour of solid dispersion): 4200 µg/mL; solubility at 1 h ([7]; feeding state simulated intestinal fluid (FeSSIF), FeSSIF, after 1 hour of solid dispersion): ≥ 10500 µg/mL; solubility at 1 h ([7]; simulated gastric fluid (SGF), simulated gastric fluid, SGF, after 1 hour of solid dispersion): ≥ 8500 µg/mL; solubility at 1 h ([7]; fourth solvent (head is an image; water), after 1 hour): 10 µg/mL; inhibitory activities against EGFR wild-type cells (A431 cells), in words (A431 cells [8]): weak inhibitory activities
C=CC(=O)Nc1cc(Nc2ncc(F)c(-c3cnn(C)c3)n2)c(OC)cc1N1CCC(N(C)C)CC1.O=C(O)CCCCC(=O)O [crystal form E] | 117 | 1660 | 7.46 | 99.30 | 0.1 | 0.5 | no | 0.4 | no | crystal form before and after the DVS test (XRPD) ([4]; 25° C.): did not change; hygroscopicity ([4]; DVS, 25° C.): slightly hygroscopic; moisture absorbed ([4]; DVS): 0.5%
C=CC(=O)Nc1cc(Nc2ncc(F)c(-c3cnn(C)c3)n2)c(OC)cc1N1CCC(N(C)C)CC1 [crystal form I] | – | – | – | – | – | – | – | – | – | humidity at turning point of DVS isotherm (transition from anhydrous crystal form I to hydrate form II) ([4]; 25° C.): 20 % RH
maleate | – | – | – | – | – | – | – | – | – | Solubility S ([9]; 1,4-dioxane): S < 1.0 mg/ml; Solubility S ([9]; 2-methyltetrahydrofuran): S < 0.9 mg/ml; Solubility S ([9]; N,N-dimethylacetamide): S > 20.0 mg/ml; Solubility S ([9]; N-methylpyrrolidone): S > 23.0 mg/ml; Solubility S ([9]; acetone): S < 1.1 mg/ml; Solubility S ([9]; dimethyl sulfoxide): S > 22.0 mg/ml; Solubility S ([9]; ethanol): S < 1.1 mg/ml; Solubility S ([9]; ethyl acetate): S < 0.9 mg/ml; Solubility S ([9]; isopropanol): S < 0.9 mg/ml; Solubility S ([9]; isopropyl acetate): S < 1.0 mg/ml; Solubility S ([9]; methyl isobutyl ketone): S < 0.9 mg/ml; Solubility S ([9]; methyl tert-butyl ether): S < 1.0 mg/ml; Solubility S ([9]; n-hexane): S < 1.0 mg/ml; Solubility S ([9]; tetrahydrofuran): S < 1.2 mg/ml; Solubility S ([9]; toluene): S < 1.1 mg/ml
C=CC(=O)Nc1cc(Nc2ncc(F)c(-c3cnn(C)c3)n2)c(OC)cc1N1CCC(N(C)C)CC1.Cl [crystal form A] | 93.3 | 1379 | 7.44 | 99.45 | 3.0 | 4.3 | no | 3.4 | no | –
C=CC(=O)Nc1cc(Nc2ncc(F)c(-c3cnn(C)c3)n2)c(OC)cc1N1CCC(N(C)C)CC1 [crystal form II] | – | – | – | – | – | – | – | – | – | stability relationship crystal form II / IV ([2]; room temperature and 50° C.): more stable than hydrate crystal form IV; stability relationship crystal form I / II ([2]; acetone/H2O, aw 0.2/0.4/0.6/0.8, room temperature, three days): more stable; weight loss in DVS ([4]; 25° C., humidity above 10% RH): essentially no weight loss; also recorded: almost no weight loss; water absorbed ([4]; DVS, 25° C., at 95% RH, after dewatering below 10% RH): 6.9%
C=CC(=O)Nc1cc(Nc2nccc(-c3cn(C)c4ccccc34)n2)c(OC)cc1N(C)CCN(C)C [comparative compound 1] | – | – | – | – | – | – | – | – | – | IC50 (NIH3T3 cells): 3550 nM; IC50 (H1975 cells [6]; Homo sapiens, NCI-H1975, 72 h incubation): 13 nM; IC50 (H1975 cells [10]): 29 nM; IC50 (A431 cells [11]): […]; IC50 (A431 cells [8]; Homo sapiens, A-431, 72 h incubation): […]
C=CC(=O)Nc1cc(Nc2ncc(F)c(-c3cnn(C)c3)n2)c(OC)cc1N1CCC(N(C)C)CC1.O=P(O)(O)O [crystal form B] | 93.2 | 1265 | 7.04 | 99.56 | 4.1 | 4.6 | no | 4.5 | no | crystal form before and after the DVS test (XRPD) ([4]; 25° C.): does not change
